Results on 13 molecules are retold here after US10087465B2, “Trans-acting elements for intracellular delivery of nucleic acid sequences” (The United States of America, as Represented by the …, priority 2014, dated 2018).

“Also recorded” adds a separate entry of the source. {NH2} = C-terminal amide of the PNA; {F1} = fluorescein label

Holding throughout (type): cell-based
One series relates to HeLa pLuc 705 cells. As to the kind of experiment: Endocytic pathway assays. As to conditions: dTtaPS-mediated uptake of PNA oligomer 10, chlorpromazine 30 μM, nystatin 50 μM, EIPA 1 mM. As for the experimental part:
Endocytic pathway assays: HeLa pLuc 705 cells were seeded in a 96-well plate and grown in 10% FBS-DMEM as described above. The cell culture was then pre-incubated for 30 min at 37° C. in the presence of chlorpromazine, nystatin or 5-(N-ethyl-N-isopropyl)amiloride (EIPA), the final concentration of which was 30 μM, 50 μM or 1 mM, respectively. A 2× solution of PNA oligomer 10:dTtaPS complex was added to the cells to provide an oligomer and dTtaPS final concentration of 1.0 μM and 2.0 μM, respectively. The cells were then incubated for an additional 30 min at 37° C., whereupon luciferase activity was measured as described above in the Luciferase assay protocol. Luminescence measurements were normalized to the amounts of protein present in the test samples and reported as percent luminescence remaining relative to that of the experiment performed in the absence of endocytic pathway inhibitors.

Series [1] concerns HEK 293, HeLa, HeLa pLuc705, MCF7 and SK—N—SH live cells. Briefly: Flow cytometry (FACS) analysis of cellular uptake of fluorescently-labeled PNA or PMO oligomers in live cells. As to conditions: for PS-dT8[3+] (dTtaPS)-mediated delivery of fluoresceinated PMO oligomers: PMO oligomer 1 μM, PS-dT8[3+] 2 μM, all cell lines, FIG. 17; for PS-dT8[3+] (dTtaPS)-mediated cellular internalization of fluoresceinated PNA oligomers: in the presence of PS-dT8[3+], oligomer 1 μM, all cell lines under study, FIG. 11. As for the experimental part: (§1) Complex formation between PNA or PMO oligomers and dTtaPS or dAtaPS: Appropriate amounts of PNA or PMO oligomers were diluted in serum-free OptiMEM™ (20 μl). dTtaPS or dAtaPS was added to the oligomer solution to achieve a final concentration that is twice that of the oligomer. After 30 min incubation at 37° C., the PNA or PMO oligomer: dTtaPS or dAtaPS complexes were stored at 4° C. for 15 minutes or until used. Stock solutions (2×) of the complexes were made by adding OptiMEM™ to appropriate volumes.
Flow cytometry analysis of cellular uptake in live cells: The internalization of fluorescently-labeled PNA or PMO sequences (Table 1) in HEK 293, HeLa, MCF7 and SK—N—SH cells was assessed by flow cytometry. Cells were seeded in a 96-well plate (10^4 cells/well) and allowed to grow at 37° C. for 24 h in 10% FBS-MEM. The culture medium of each well was then replaced with fresh medium (100 μl) containing any of the fluorescently-labeled PNA or PMO sequences, the final concentration of which was 1 μM. After an incubation of 18 h at 37° C., the medium was removed from each well by suction and 0.25% Trypsin (50 μl) was added. Upon complete cell detachment, a solution (100 μl) of ice-cold 2% FBS in phosphate-buffered saline (PBS, pH 7.4) was added to each well. The cells were collected into tubes, to which was added 0.4% Trypan blue (50 μl) and 200 µM monensin (20 μl), and analyzed by fluorescence-activated cell sorting (FACS) using a BD FACScan™ flow cytometer. A total of 5000 events were counted and the results were reported as a percentage of the cells that have internalized the fluorescently-labeled oligomers.

The next series concerns HeLa pLuc705 cells. Briefly: Luciferase splice correction assay. The note with it: for luciferase activity (splice correction) upon PS-dT8[3+] (dTtaPS)-assisted delivery of PNA oligomers: FIG. 12, 13, 15; for luciferase activity / internalization upon PS-dA8[3+] (dAtaPS)-mediated delivery of PNA oligomers: PS-dA8[3+] 2.0 μM, compared with PS-dT8[3+]:10 complex, FIG. 16. As for the experimental part:
The efficiency of PS-dT8[3+] in the cellular uptake of polyA-tailed PNA oligomers was assessed through the luciferase splice correction assay in which the mutated intron 2 of the human β-globin gene has been inserted within the coding sequence of a luciferase reporter gene (pLuc705). The activation of a cryptic splice site in this intron leads to a defective luciferase enzyme. In the presence of a PNA oligomer complementary to the aberrant splice site, correct splicing is restored and results in an active luciferase. A concentration-dependence of splice correction activity by PS-dT8[3+]-mediated internalization of the PNA oligomer 10 in HeLa pLuc705 cells is shown in FIG. 12.
as §1
Luciferase assay protocol: HeLa pLuc 705 cells were seeded in a 96-well plate (2×10^4 cells/well) and allowed to grow at 37° C. for 18 h in 10% FBS-DMEM. The culture medium of each well was then replaced with either fresh serum-free or 20% serum-containing OptiMEM™ (50 μl) for experiments intended to be performed in serum-free or in 10% serum-containing media. A 2× solution of PNA or PMO oligomer:dTtaPS or dAtaPS complexes (50 μl) was added to the cells in order to achieve pre-determined complex concentrations, as indicated in the Figures. After a 4-hour incubation at 37° C., 20% FBS in OptiMEM™ (100 μl was added to serum-free experiments and cells were incubated for an additional 18 h at 37° C. The media was then removed by suction and the cells were mixed with a cell lysis reagent (50 μl) and agitated at ambient temperature for 10 minutes. The cell lysate (30 μl) was placed in a white 96-well plate and Bright-Glo™ reagent (20 μl) was added. Luciferase activity was measured using a microplate reader. For each well, luminescence was integrated over a period of 1 sec and recorded as relative light units (RLU). Luminescence measurements were normalized to the amount of protein present in the test sample.
Appropriate amounts of PNA/PMO oligomers were diluted in OptiMEM™ (20 μL) to achieve the concentration of 1 μM or as indicated in the Figures. PS-dT8[3+] or PS-dAs[3+] was added to the above oligomer solutions. After a 30 min incubation at 37° C., the PNA/PMO oligomer:PS-dT8[3+] or PS-dA8[3+] complexes were removed and kept at 4° C. for 15 minutes or until used. Stock solutions of the complexes were made by adding OptiMEM™ to appropriate volumes.
Luciferase Assay: Prior to performing experiments, HeLa pLuc 705 cells were seeded in a 96-well plate (2×10^4 cells/well) and allowed to grow at 37° C. for 18 h in 10% FBS DMEM. The culture medium of each well was then replaced with either fresh 50 μL serum free or 20% serum-containing OptiMEM™ for experiments intended to be performed in serum free or in 10% serum-containing media. A 2× solution of the PNA/PMO oligomer:PS-dT8[3+] or PS-dAs[3+] complexes (50 μL) was added to the cells in order to achieve a pre-determined concentration as indicated in the figures. After a 4-hour incubation at 37° C., 20% FBS in OptiMEM (100 μL) was added to serum free experiments and cells were incubated for an additional 18 h at 37° C. The media was then removed by suction and the cells were mixed with a cell lysis reagent (50 μL) and agitated at ambient temperature over a period of 10 minutes. The cell lysate (30 μL) was placed in white 96-well plate and Bright-Glow™ reagent (20 μL) was added. Luciferase activity was measured using a microplate reader. […]

Take `CCN(c1nc(N)c(C(=O)N=C(N)N)nc1Cl)C(C)C` [EIPA, 5-(N-ethyl-N-isopropyl)amiloride]: the “inhibition of luciferase production by endocytic pathway inhibitor” value in the series with HeLa pLuc 705 cells is ~95%.

With `C[C@@H]1[C@H](O)[C@@H](C)/C=C/C=C/CC/C=C/C=C/C=C/C=C/C(O[C@H]2O[C@H](C)[C@@H](O)[C@H](N)[C@@H]2O)CC2O[C@](O)(CC(O)C(O)CCC(O)CC(O)CC(O)CC(=O)O[C@H]1C)CC(O)C2C(=O)O` (stereo partly shown) [Nystatin, nystatin], in the series with HeLa pLuc 705 cells, the “inhibition of luciferase production by endocytic pathway inhibitor” value is on record as “did not inhibit”. The term inhibition denotes the change of the read-out against control, counted positive when it falls. As to `CN(C)CCCN1c2ccccc2Sc2ccc(Cl)cc21` [chlorpromazine], in the series with HeLa pLuc 705 cells (Homo sapiens, HeLa, read-out: inhibition of luciferase production by endocytic pathway inhibitor), the inhibition at 30 µM is ~40%. Take “PMO oligomer 19: commercial PMO, GTGGCCGTTTACGTCGCC-AAAAAA-F1, SEQ ID NO. 13 (GTGGCCGTTTACGTCGCCAAAAAA; PMO, F1 label, chemistry not fully specified)”: the “PS-dT8[3+] (dTtaPS)-mediated delivery of fluoresceinated PMO oligomers” value in series [1] (listed as 19) is given as “confirmed the dTtaPS-assisted delivery”. Regarding “PMO oligomer 20: commercial PMO, CCTCTTACCTCAGTTACA-F1, SEQ ID NO. 14 (all phosphorodiamidate morpholino (PMO), 3' {F1})”, in series [1], the “PS-dT8[3+] (dTtaPS)-mediated delivery of fluoresceinated PMO oligomers” value is “reduced to that of the medium”.

With “PMO oligomer 24: commercial PMO, CCTCTTACCTCAGTTACA-AATAAA, SEQ ID NO. 18 (CCTCTTACCTCAGTTACAAATAAA; all phosphorodiamidate morpholino (PMO))”, the “luciferase activity upon PS-dT8[3+] (dTtaPS)-assisted internalization of PMO oligomers” value with HeLa pLuc705 cells (PMO oligomer 1 μM, PS-dT8[3+] 2 μM, relative to PMO oligomer 21, FIG. 18, listed as 24) is listed as “did not significantly decrease; also recorded: did not significantly affect”. “PNA oligomer 8: commercial PNA, F1-GTGGCCGTTTACGTCGCC-AAAAAA-NH2, SEQ ID NO. 2 (GTGGCCGTTTACGTCGCCAAAAAA; PNA, F1 label, C-amide, chemistry not fully specified)”: in series [1], the “PS-dT8[3+] (dTtaPS)-mediated cellular internalization of fluoresceinated PNA oligomers” value was “efficiently internalized”. On the same count and under the same terms, the entry for “PNA oligomer 9: commercial PNA, F1-CCTCTTACCTCAGTTACA-NH2, SEQ ID NO. 3 (all peptide nucleic acid (PNA), 5' {F1}; PNA with C-terminal amide, further chemistry not fully specified)” is “not significantly internalized”.

Take “PNA oligomer 11: commercial PNA, negative control, H-GTGGCCGTTTACGTCGCC-AAAAAA-NH2, SEQ ID NO. 5 (GTGGCCGTTTACGTCGCCAAAAAA; all peptide nucleic acid (PNA); PNA with N-terminal H and C-terminal amide, further chemistry not fully specified)”: in the series with HeLa pLuc705 cells (PS-dT8[3+] 2 μM, listed as 11), the “luciferase activity (splice correction) upon PS-dT8[3+] (dTtaPS)-assisted delivery of PNA oligomers” value is reported as “failed, as expected for a negative control, to restore luciferase activity”.

With “PNA oligomer 12: commercial PNA, H-CCTCTTACCTCAGTTACA-NH2, SEQ ID NO. 6 (all peptide nucleic acid (PNA); PNA with N-terminal H and C-terminal amide, further chemistry not fully specified)”, the “luciferase activity (splice correction) upon PS-dT8[3+] (dTtaPS)-assisted delivery of PNA oligomers” value in the series with HeLa pLuc705 cells (PS-dT8[3+] 2 μM) is recorded as “did not restore luciferase activity”. Consider “PNA oligomer 15: commercial PNA, H-CCTCTTACCTCAGTTACA-TTTTTT-NH2, SEQ ID NO. 9 (CCTCTTACCTCAGTTACATTTTTT; all peptide nucleic acid (PNA); PNA with N-terminal H and C-terminal amide, further chemistry not fully specified)”, for which the “luciferase activity / internalization upon PS-dA8[3+] (dAtaPS)-mediated delivery of PNA oligomers” value in the series on HeLa pLuc705 cells (listed as 15) is on record as “about half the level of luciferase activity”. Besides, in the series with HeLa pLuc705 cells (PS-dT8[3+] 2 μM, listed as 15), the “luciferase activity (splice correction) upon PS-dT8[3+] (dTtaPS)-assisted delivery of PNA oligomers” value was “did not result in significant production of luciferase activity; also recorded: did not lead to the production of luciferase activity”. Take “PNA oligomer 16: commercial PNA, H-CCTCTTACCTCAGTTACA-CCCCCC-NH2, SEQ ID NO. 10 (CCTCTTACCTCAGTTACACCCCCC; all peptide nucleic acid (PNA), 3' {NH2}; further chemistry not fully specified)”: the “luciferase activity / internalization upon PS-dA8[3+] (dAtaPS)-mediated delivery of PNA oligomers” value in the series with HeLa pLuc705 cells (listed as 16) is “failed to recognize and internalize”. The “luciferase activity (splice correction) upon PS-dT8[3+] (dTtaPS)-assisted delivery of PNA oligomers” value in the series on HeLa pLuc705 cells (PS-dT8[3+] 2 μM, listed as 16) is reported as “did not result in significant production of luciferase activity; also recorded: did not lead to the production of luciferase activity”. With “PNA oligomer 17: commercial PNA, H-AAAAAA-CCTCTTACCTCAGTTACA-NH2, SEQ ID NO. 11 (AAAAAACCTCTTACCTCAGTTACA; all peptide nucleic acid (PNA); PNA with N-terminal H and C-terminal amide, further chemistry not fully specified)”, the “luciferase activity / internalization upon PS-dA8[3+] (dAtaPS)-mediated delivery of PNA oligomers” value in the series with HeLa pLuc705 cells (listed as 17) is “failed to recognize and internalize”. Also, in the series on HeLa pLuc705 cells (PS-dT8[3+] 2 μM), the “luciferase activity (splice correction) upon PS-dT8[3+] (dTtaPS)-assisted delivery of PNA oligomers” value is “did not significantly affect”.
